# Assay results from paper PMC10221314 (Pharmaceuticals, 2023).
# Entries after “also recorded” stand apart in the source; their conditions may differ.
# Experiments:
# [1] = system: RXRα, RXRβ, RXRγ, LXRα, LXRβ, PXR, PPARα, PPARβ, PPARγ, and GPBAR; assay: NR selectivity one-hybrid assay in HEK-293T cells (panel of metabolic NRs); assay type: cell-based
# Procedure: (§1) To assess the compound’s specificity, the mammalian one-hybrid assay was conducted. In this assay, HEK-293T cells were co-transfected with a fusion plasmid of Gal4 DBD-NR LBD (comprising RXRα, RXRβ, RXRγ, PPARα, PPARβ, PPARγ, LXRα, LXRβ, GPBAR, and PXR) and the UAS-TK-Luc reporter, followed by treatment with various concentrations of the compound. The positive control consisted of the corresponding nuclear receptor agonist, and the concentration used in the experiment was set to the EC50 of the agonist.
# (§2) Figure 3 Compound 10b selectively antagonized FXR. The impact of compound 10b on various NRs was evaluated using a […] one-hybrid assay in HEK-293T cells. The cells were transiently co-transfected with a fusion plasmid of Gal4 DBD-NR-LBD, which included PPARα, PPARβ, PPARγ, RXRα, RXRβ, RXRγ, LXRα, LXRβ, GPBAR, PXR, and FXR, in combination with the UAS-TK-Luc reporter. […] The values are expressed as the means ± SE of three independent experiments. *: p < 0.05 vs. RA (relative agonist).
# [2] = biological target: T1, LXRα (Homo sapiens, UniProt Q13133); assay: NR selectivity one-hybrid assay in HEK-293T cells (LXRα); assay type: cell-based; conditions: activated by GW3965
# T1 construct: a fusion plasmid of Gal4 DBD-NR LBD (comprising RXRα, RXRβ, RXRγ, PPARα, PPARβ, PPARγ, LXRα, LXRβ, GPBAR, and PXR); expressed in transfected cells; host or cells: HEK-293T
# T1 sequence (Q13133 209-447 limits assumed): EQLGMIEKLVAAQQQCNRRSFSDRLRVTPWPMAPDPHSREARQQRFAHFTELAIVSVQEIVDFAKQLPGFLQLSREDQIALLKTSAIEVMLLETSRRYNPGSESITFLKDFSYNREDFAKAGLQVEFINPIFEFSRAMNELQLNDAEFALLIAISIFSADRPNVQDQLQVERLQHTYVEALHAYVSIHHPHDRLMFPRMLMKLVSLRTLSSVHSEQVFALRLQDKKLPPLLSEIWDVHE
# Procedure: as §1, §2
# [3] = Stability of compound 10b in mouse plasma at 37 °C (HPLC); assay type: in vitro ADME; parameters: recovery at 6 h / recovery at 48 h: dose or concentration left out as unconfirmed; conditions: for Mass of 10b extracted from mouse plasma: theoretical mass 38.5 μg
# Procedure: 3. Stability test of compound 10b
# To preliminarily determine the stability of compound 10b in a biological environment, an in vitro experimental verification method was employed. The trace compound was dissolved in mouse plasma to simulate the biological environment.
# Samples were taken at different time intervals at 37 °C, and the content of the compound was determined by HPLC C18 analytical column. The peak area of the absorption at 220 nm was utilized for content calculation.
# The standard curve shown in Fig. S1 can be plotted using the peak area and the mass of compound 10b in the corresponding volume of the solution. The relationship is y = 23.253x+ 100.67 (R2 = 0.9994), which meets linearity requirements and can be used for subsequent operations.
# Fig. S1. The relationship curve between the absorption peak area and mass of compound 10b at 220 […]
# Subsequently, a mouse with a body weight of 20 g and blood volume of 1 mL was calculated based on the subsequent in vivo experiment’s dosage (100 mg·Kg-1).
# Assuming 100% absorption, the converted plasma drug concentration is 2 mg·mL -1.
# Based on the calculation, 0.5 mg of 10b was added to […] of mouse plasma to prepare a mixed solution. The plasma was then processed after 1h, 6h, 12 h, 24 h, and 48 h, respectively. The compound content in the sample was compared to the initial content with UV absorption and retention time (t = 6.5 min). […]
# significant decrease in the content of 10b was observed between 0 to 48 hours, […]
# [4] = system: FXR downstream genes; assay: mRNA expression of FXR downstream genes in HepG2 cells (qRT-PCR); assay type: cell-based; conditions: 10 μM and 1 μM, 24 h
# Procedure: (§3) Cells and liver tissue samples were subjected to RNA extraction and purification, followed by reverse transcription of equal amounts of total RNA into […] using a Transcriptor First Strand cDNA Synthesis Kit (Roche). The relative expression levels of the target gene were determined using TaqMan probe/primers with an ABI Q3 quantitative real-time PCR system, while GAPDH/Gapdh was utilized as an internal control for mRNA expression. The fold change in the expression of the target mRNA was calculated using Equation 2^−ΔΔCt.
# (A) Relative mRNA level of SHP; (B) Relative mRNA level of BSEP; (C) Relative mRNA level of CYP7A1; (D) Relative mRNA level of SREBP1c; (E) Relative mRNA level of PEPCK; (F) Expression level of G6Pase. HepG2 cells were seeded in a 6-well plate and treated with DMSO and varying concentrations of compound 10b for 24 h with or without 50 μM of 1. The mRNA levels of SHP, BSEP, CYP7A1, SREBP1c, PEPCK, and G6Pase were quantified and normalized to β-actin expression.
# [5] = system: LX-2 cells; assay: Western blot of liver-fibrosis-associated proteins in LX-2 cells and HSC-T6 cells; assay type: cell-based; conditions: 20 μM
# Procedure: The total protein concentration in cell and liver tissue lysates was determined using a BCA kit (Beyotime Biotechnology, P0009). Following immune precipitation with appropriate antibodies overnight at 4 °C and incubation with Protein A/G Plus-agarose (Santa Cruz Biotechnology, sc-2003), immunocomplexes or lysates were subjected to SDS-PAGE gel electrophoresis and transferred onto PVDF membranes. Target proteins were detected using specific primary antibodies and an appropriate secondary antibody, with electrochemiluminescence carried out according to the manufacturer’s instructions with a Tanon 5200 imaging system (Shanghai, China). The internal control utilized was GADPH.
# (§4) (A–E) The LX-2 cells underwent a 24 h treatment of 2 ng·mL^−1 TGFβ1, with or without varying concentrations of candidate compounds, following FBS starvation. […] GAPDH/GAPDH was used as the loading control. The mean ± SD values were obtained from three independent assays. […] ANOVA was followed by Tukey’s test for statistical analysis.
# [6] = system: LX-2 cells; assay: mRNA expression of liver fibrosis marker genes in TGFβ1-induced LX-2 cells; assay type: cell-based; conditions: 20 μM, induced by 2 ng·mL^−1 TGFβ1, 24 h
# Procedure: as §3, §4
# [7] = in the presence and absence of compound 1 (50 μM)
structure (smiles),measurement,setting,value
"CC1(C)CCC2(C(=O)O)CCC3(C)C(C(OC(=O)CCC(NC(=O)OC(C)(C)C)C(=O)OC(C)(C)C)CC4C5(C)CCC(O)C(C)(C)C5CCC43C)C2C1 [Compound 10b, 3β-hydroxy-12β-(4′-((tert-butoxycarbonyl)amide)-5′-(tert-butoxy)-L-glutamte)oxy-13H-olean-28-oic acid]",agonistic effect for tested NRs or GPBAR,[1],no agonistic effect
same,antagonistic effects against LXRα,[2],10–20%
same,"recovery at 0 h, 0.0025 mg/mL","[3]; 0 h, read-out: Recovery rate",68%
same,Mass of 10b extracted from mouse plasma,[3]; 0 h,26.2 µg
same,content of 10b in mouse plasma (stability),[3]; 0 to 48 h,existed stably in mouse plasma; also recorded: remained almost unchanged
same,"recovery at 1 h, 0.0025 mg/mL","[3]; 1 h, read-out: Recovery rate",70.9%
same,Mass of 10b extracted from mouse plasma,[3]; 1 h,27.3 µg
same,recovery at 6 h,"[3]; 6 h, read-out: Recovery rate",75.8%
same,Mass of 10b extracted from mouse plasma,[3]; 6 h,29.2 µg
same,"recovery at 12 h, 0.0025 mg/mL","[3]; 12 h, read-out: Recovery rate",63.4%
same,Mass of 10b extracted from mouse plasma,[3]; 12 h,24.4 µg
same,"recovery at 24 h, 0.0025 mg/mL","[3]; 24 h, read-out: Recovery rate",68.5%
same,Mass of 10b extracted from mouse plasma,[3]; 24 h,26.4 µg
same,recovery at 48 h,"[3]; 48 h, read-out: Recovery rate",76.6%
same,Mass of 10b extracted from mouse plasma,[3]; 48 h,29.5 µg
same,expression of G6Pase (mRNA),[4],inhibited the expression
same,expression of PEPCK (mRNA),[4],inhibited the expression
same,expression of BSEP (mRNA),[4]; [7],inhibit
same,expression of CYP7A1 (mRNA),[4]; [7],increasing the expression
same,expression of SHP (mRNA),[4]; [7],inhibit
same,expression of SREBP1c (mRNA),[4]; [7],inhibit
same,content of protein TGFβ1,[5],reduced
same,content of protein TIMP1,[5],reduced
same,content of protein a-SMA,[5],reduced
same,mRNA expression of ACTA2,[6],significantly decrease
same,mRNA expression of COL1A1,[6],significantly decrease
same,mRNA expression of CTGF,[6],significantly decrease
same,mRNA expression of ITGAV,[6],significantly decrease
same,mRNA expression of TGFb1,[6],significantly decrease
